Experimental findings from ChEMBL document CHEMBL3430912, “GSK Tres Cantos Anti-Kinetoplastid Screening (TCAKS) Data” are described below.

Data set [1] deals with Leishmania donovani. Kind of data set: GSK_TCAKS: pIC50 Leishmania donovani viability assay using fluorescence intensity. Assay plates (1536-well) were prepared by adding 30nL per well of compound. For single shot assay, the final compound concentration was 5uM. […] Briefly, eGFP LdBOB axenic amastigotes were harvested, fixed and counted in a CASY cell counter (Roche-Applied Science). A final concentration of 1.5 * 10^5 cells per well were prepared in amastigote media containing 500 U/mL penicillin/streptomycin (Invitrogen) and 6uL was dispensed to each experimental well using a Multidrop Combi dispenser (Thermo Scientific). 6uL of assay media was dispensed to control columns used as reference for 100% compound response. Following incubation for 72 h at 37C, 5% CO2, 2 uL of resazurin was added to each well at a final concentration of 0.5 mM in phosphate buffered saline (PBS) with IGEPAL (Sigma-Aldrich), 0.05% (v/v). The data set is classed as functional, organism-based. In general terms: The colour change of resazurin is a common sign of viable cells or microbes.

For the next data set, the system named is NIH3T3. The experiment in a line: GSK_TCAKS: pIC50 NIH 3T3 cell line viability assay using luminiscence. Tissue culture surface treated assay plates (1536-well) were used. […] The 100% cells survival control was determined exposing the host-cells to a 0.5% DMSO concentration, whereas the 100% toxicity control was achieved by seeding the cells in presence of Amphotericin B at 50uM. Plates were incubated for four days at 37C, 5% CO2. The assay readout was developed by addition of 5uL of CellTiter-Glo Reagent following the manufacturer's instructions. Luminiscence was measured using a ViewLux. To be noted: Mus musculus, NIH3T3, 96 h. The data set is classed as functional, cell-based. A general note: ATP-based viability assays read luminescence as a measure of living cells.

Data set [2] relates to Trypanosoma cruzi. Kind of data set: (§1) GSK_TCAKS: pIC50 H2C9 Imaging: H9c2 Host Cardiomyocytes. […] Cells were then washed once with PBS before infection. T. cruzi trypomastigotes, collected at days 5 to 8 after infection from LLC-MK2 parasite infected cultures, were allowed to swim out for 4h at 37C from a centrifuged pellet (2,500 rpm/10 min/room temperature). Trypomastigotes were then collected and counted in a CASY Cell Counter. Trypomastigotes, in supplemented DMEM, were added to H9c2 cultures in a multiplicity of infection of 1 and incubated for 18 h. Cells were washed once with PBS before incubation of the infected H9c2 monolayer with trypsin (Life-Technologies) to detach cells from the flask. Cells were counted in a CASY Cell Counter using a 150 um capillary and their density set at 5 * 10^4 cells per mL in supplemented assay DMEM. Infected H9c2 were dispensed into 384-well poly-lysine coated assay plates at 50uL per well using a Multidrop Combi dispenser. After seeding them, the plates were incubated at 37C, 5% CO2 for 72h. Cultures were then fixed and stained by addition of 50 uL of a solution containing 8% formaldehyde and 4 uM DRAQ5 DNA dye (BioStatus, UK) per well. […] Five images were collected per well for reliable statistical analysis. Automated image analysis was performed with a script developed on Acapella High Content Imaging and Analysis Software (PerkinElmer). Output: Number of H9c2 Host Cardiomyocytes nuclei to determine drug-related cytotoxicity. In kind it is functional, organism-based, Rattus norvegicus. To be noted: H9c2, 4 h.

Data set [3] has as its system Trypanosoma brucei brucei. Kind of data set: GSK_TCAKS: pIC50 Trypanosoma brucei viability assay using luminiscence. Assay plates (1536-well) were prepared. T. brucei cultures were harvested and counted in a CASY cell counter. A parasite suspension was prepared at a final concentration of 5 * 10^4 cells/mL in complete HMI9 medium and 6uL was dispensed to all wells containing compounds using a Multidrop Combi dispenser. 6uL of HMI9 media with 0.4% DMSO were dispensed to control columns. Plates were incubated for 24 h at 37C, 5% CO2 then tempered for 10 min at room temperature. ATP content was quantified by adding 4 uL of CellTiter-Glo Reagent (Promega) according to the manufacturer's instructions. Luminescence was measured using a ViewLux. In kind it is functional, organism-based. The following applies: Lister 427, CASY.

Data set [4] has as its system Leishmania donovani. Kind of data set: GSK_TCAKS: pIC50 Leishmania donovani Imaging: THP-1 Host Macrophages. Assay plates (384-well) were prepared by adding 250nL of compound to each well. For single shot assay, the final compound concentration was 5 uM. […] Automated image analysis was performed with a script developed on Acapella High Content Imaging and Analysis Software (PerkinElmer). Output: THP-1 cell count were reported for each well. The data set is classed as functional, organism-based, Homo sapiens.

A short description of data set [5]: GSK_TCAKS: pIC50 HepG2 human cell line viability assay using luminiscence. […] Seeding density was checked to ensure that new mono-layers were not more than 50% confluent at the time of harvesting. Cell suspension was added to 500 mL of the same medium at a final density of 1.2 * 10^5 cells/mL. This cell suspension was dispensed (25 uL, 3000 cells per well) into 384-well clear-bottom plates using a Multidrop Combi dispenser. Prior to addition of the cell suspension, the screening compounds (250 nL) were pre-dispensed into the plates with an Echo liquid handler. Plates were incubated for 48 h at 37C, 5% CO2. After incubation, plates equilibrated at room temperature for 30 min before proceeding to develop the luminescent signal. The signal developer, CellTiter-Glo Reagent, was allowed to equilibrate at room temperature for 30 min and added to the plates (25uL per well) using a Multidrop Combi dispenser. Plates were left for 10 min at room temperature for stabilization and then read using a ViewLux. The data set is classed as toxicity, cell-based.

Data set [6] concerns Trypanosoma cruzi. The description is as §1, with “Trypanosoma cruzi” for “H2C9”, “Infected Cells.” for “H9c2 Host Cardiomyocytes.”, “percentage” for “Number”, “infected cells per well as a second infection marker.” for “H9c2 Host Cardiomyocytes nuclei to determine drug-related cytotoxicity.”. In kind it is functional, organism-based, Rattus norvegicus. The following applies: H9c2, 4 h.

The subject of data set [7] is Trypanosoma brucei brucei. Kind of data set: GSK_TCAKS: pIC50 Trypanosoma brucei viability assay using fluorescence intensity. Assay plates (1536-well) were prepared by dispensing 25nL of compound solution per well using an Echo acoustic dispenser (Labcyte). To be noted: Lister 427, 2 h. In kind it is functional, organism-based.
Data set [8] relates to Trypanosoma cruzi. The description is as §1, with “Trypanosoma cruzi” for “H2C9”, “Amastigotes/Cell.” for “H9c2 Host Cardiomyocytes.”, “number” for “Number”, “amastigotes per cell as infection level measurement.” for “H9c2 Host Cardiomyocytes nuclei to determine drug-related cytotoxicity.”. The data set is classed as functional, organism-based, Rattus norvegicus. The following applies: H9c2, 4 h.

Data set [9] deals with Trypanosoma cruzi. Kind of data set: GSK_TCAKS: pIC50 Trypanosoma cruzi viability assay using beta-GAL activity. This assay was run at single shot at 5uM compound concentration per well. The biological reagents consisted of NIH-3T3 host cells and trypomastigotes parasitic cells; both cell types were set to a 3.3 * 10^5 cells/mL dilution in assay DMEM by means of a CASY cell counter device using a 60um capillary. 6 uL of the mixture were dispensed per well (about 1 * 10^3 host-cells and 1 * 10^3 parasites) with a Multidrop Combi dispenser. […] In all wells, the percentage of DMSO never exceeded 0.5%. Plates incubated for four days at 37C, 5% CO2. The substrate used for the assay fluorescence intensity (FLINT) readout was resorufin-beta-D-galactopiranoside (Sigma-Aldrich) at 5uM per well. It was diluted in PBS supplemented with the soft detergent Igepal (Fluka). The data set is classed as functional, organism-based, Mus musculus. The following applies: Tulahuen, NIH3T3.

Data set [10] deals with Leishmania donovani. Kind of data set: GSK_TCAKS: pIC50 Leishmania donovani Imaging: Infected Macrophages. Assay plates (384-well) were prepared by adding 250nL of compound to each well. For single shot assay, the final compound concentration was 5 uM. […] Automated image analysis was performed with a script developed on Acapella High Content Imaging and Analysis Software (PerkinElmer). Output: Percent of infected macrophage cells were reported for each well. The data set is classed as functional, organism-based, Homo sapiens. The following applies: THP-1.

The target in data set [11] is Sterol 14-alpha demethylase (Trypanosoma cruzi (strain CL Brener), UniProt Q7Z1V1). The experiment in a line: GSK_TCAKS: pIC50 CYP51 from Trypanosoma cruzi. In kind it is functional.
Sequence of Sterol 14-alpha demethylase (Q7Z1V1 whole entry): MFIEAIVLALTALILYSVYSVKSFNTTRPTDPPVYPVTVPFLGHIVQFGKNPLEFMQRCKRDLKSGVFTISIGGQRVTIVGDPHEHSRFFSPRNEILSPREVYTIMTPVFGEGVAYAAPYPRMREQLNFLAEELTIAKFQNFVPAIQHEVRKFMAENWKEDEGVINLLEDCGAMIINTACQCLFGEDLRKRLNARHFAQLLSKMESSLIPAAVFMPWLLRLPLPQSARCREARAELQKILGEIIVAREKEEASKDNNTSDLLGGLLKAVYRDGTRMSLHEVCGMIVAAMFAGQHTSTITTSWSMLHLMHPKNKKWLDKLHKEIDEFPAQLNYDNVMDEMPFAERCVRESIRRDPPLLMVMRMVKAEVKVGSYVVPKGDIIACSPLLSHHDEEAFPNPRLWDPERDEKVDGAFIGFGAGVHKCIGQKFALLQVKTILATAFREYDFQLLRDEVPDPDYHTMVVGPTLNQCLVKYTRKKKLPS
For data set [12], the system named is Leishmania donovani. Kind of data set: GSK_TCAKS: pIC50 Leishmania donovani Imaging: Amastigotes/Macrophages. Assay plates (384-well) were prepared by adding 250nL of compound to each well. For single shot assay, the final compound concentration was 5 uM. […] Automated image analysis was performed with a script developed on Acapella High Content Imaging and Analysis Software (PerkinElmer). Output: Average number of amastigotes per macrophage cell were reported for each well. The data set is classed as functional, organism-based, Homo sapiens. The following applies: THP-1.

Where only a bound is given, the exact number is not on record here.

One may read the IC50 as the midpoint of a concentration-inhibition curve. Turning to `Cc1cc(N(C)C)nc2ccc(Cc3cnc(N)nc3N)cc12`, the IC50 is > 50.1 µM in the data set on Leishmania donovani [1]; 10 µM in the data set with NIH3T3; > 50.1 µM in the data set on Trypanosoma cruzi [2]; 5.01 µM in data set [3]; 39.8 µM in the data set with Leishmania donovani [4]; 6310 nM in the data set with Trypanosoma cruzi [6]. Also, the half-maximal inhibitory concentration (IC50) in [7] was 5.01 µM; with Trypanosoma cruzi [8], 3160 nM; in the data set with Trypanosoma cruzi [9], 1260 nM; in the data set on Leishmania donovani [10] it was 31.6 µM; in data set [11], > 100 µM; with Leishmania donovani [12], 39.8 µM. Moreover, in data set [5], the IC50 at 48 h was 31.6 µM.
As to `NC(=O)c1ccc(-c2cccc(OCCN3CCN(C4CCCCC4)CC3)c2)cc1`, the IC50 in the data set on Leishmania donovani [1] is > 50.1 µM; in the data set on NIH3T3 it was 15.8 µM; in the data set on Trypanosoma cruzi [2], > 50.1 µM; in [3], 15.8 µM; with Leishmania donovani [4], 31.6 µM; in the data set on Trypanosoma cruzi [6], 1580 nM. In addition, the IC50 was 15.8 µM in [7]; 794 nM in the data set on Trypanosoma cruzi [8]; 1580 nM with Trypanosoma cruzi [9]; 50.1 µM with Leishmania donovani [10]; 39.8 µM in data set [11]; 10 µM in the data set on Leishmania donovani [12]. Half-maximal inhibition in [5] (IC50 at 48 h) was put at 50.1 µM.
Consider `CCCC(=O)N(Cc1ccccn1)c1nc2ccccc2s1`, for which the 50% inhibitory concentration (IC50) was 7.94 µM in the data set with Leishmania donovani [1]; > 50.1 µM in the data set with NIH3T3; > 50.1 µM with Trypanosoma cruzi [2]; > 39.8 µM in data set [3]; > 50.1 µM in the data set with Leishmania donovani [4]; 100 nM in the data set on Trypanosoma cruzi [6]. Further, the IC50 was 20 µM in [7]; 79.4 nM in the data set on Trypanosoma cruzi [8]; 126 nM with Trypanosoma cruzi [9]; > 50.1 µM in the data set with Leishmania donovani [10]; 0.0501 µM in data set [11]; 10 µM in the data set on Leishmania donovani [12]. Moreover, in data set [5], the IC50 at 48 h is > 100 µM.
In the case of `O=[N+]([O-])c1ccc(C2=NCCNC(c3ccccc3)=C2)cc1.[O-][Cl+3]([O-])([O-])O`, the half-inhibitory concentration (IC50) in the data set on Leishmania donovani [1] is > 50.1 µM; in the data set on NIH3T3 it was 7.94 µM; in the data set with Trypanosoma cruzi [2], 31.6 µM; in [3], > 12.6 µM; in the data set with Leishmania donovani [4], 39.8 µM; in the data set with Trypanosoma cruzi [6], 1000 nM. For the same compound, the IC50 in [7] was 6.31 µM; in the data set with Trypanosoma cruzi [8], 251 nM; in the data set on Trypanosoma cruzi [9], 501 nM; with Leishmania donovani [10] it was 20 µM; in [11], 50.1 µM; in the data set on Leishmania donovani [12], 7.94 µM. Further, in data set [5], the IC50 at 48 h is 50.1 µM.
Consider `Clc1ccc(Sc2cnccc2N2CCOCC2)cc1`, for which the IC50 in the data set with Leishmania donovani [1] is 7.94 µM; in the data set with NIH3T3, > 50.1 µM; in the data set with Trypanosoma cruzi [2], > 50.1 µM; in data set [3], > 39.8 µM; in the data set with Leishmania donovani [4], > 50.1 µM; with Trypanosoma cruzi [6], 126 nM. Further, the concentration for half-maximal inhibition (IC50) in data set [7] is 25.1 µM; in the data set with Trypanosoma cruzi [8], 100 nM; in the data set on Trypanosoma cruzi [9] it was 141 nM; in the data set on Leishmania donovani [10], > 50.1 µM; in data set [11] it was 0.0316 µM; in the data set with Leishmania donovani [12], 10 µM. Further, the IC50 at 48 h in data set [5] was > 100 µM.
